Earlier results as cited in patent US10307432B2, “Stabilized liquid fosaprepitant formulations” (Cipla Limited, priority 2015, dated 2019).

Legend:
[1] = system: serotonin, dopamine or corticosteroid receptors
[2] = after an IV infusion

| affinity for serotonin, dopamine or corticosteroid receptors [1] | time of conversion to aprepitant [2] | Compound |
| --- | --- | --- |
| little or no affinity | – | C[C@@H](O[C@H]1OCCN(Cc2n[nH]c(=O)[nH]2)[C@H]1c1ccc(F)cc1)c1cc(C(F)(F)F)cc(C(F)(F)F)c1 [Aprepitant] |
| – | less than 30 minutes | C[C@@H](O[C@H]1OCCN(Cc2nc(O)n(P(=O)(O)O)n2)[C@H]1c1ccc(F)cc1)c1cc(C(F)(F)F)cc(C(F)(F)F)c1 [Fosaprepitant] |
